Measured values from patent US11491227B2, “Cucurbituril-based hydrogels” (CAMBRIDGE ENTERPRISE LIMITED, priority 2012, dated 2022).

Key:
[1] = test system: L929 mouse broblast cells; details: 1 ppm; cited from earlier work
[2] = test system: PVA-MV@CB[8]; assay: ITC second guest binding to PVA-MV in the presence of CB[8]; details: 25° C., 10 mM PBS buffer pH 7.0
Protocol: ITC titration experiments were carried out on a VP-ITC from Microcal Inc. at 25° C. in 10 mM sodium phosphate buffer (pH=7). In a typical experiment, the host was in the sample cell at a concentration of 0.1 mM, and the guest was in the syringe at a 10 fold higher concentration. In the case of functional polymers, the concentration used is determined from the concentration of functional monomer units in solution and not the concentration of polymer. A titration consisted of 29 consecutive injections of 2-10 mL with at least 300 s intervals between injections. The first data point was removed from the data set prior to curve fitting. Heats of dilution were checked by titration well beyond saturation or by titration of the guest into a buffer solution and subtracted from the normalized enthalpies, but relatively small in all cases. The data were analyzed with Origin 7.0 software, using the one set of sites model.
Isothermal titration calorimetry (ITC) was used for quantitative investigation of the respective binding thermodynamics for the HEC-Np and PVA-MV with CB[8]

Row | Molecule | cytotoxic response [1] | Ka [2]
1 | dibutyltin dilaurate [TDL] | does not elicit a cytotoxic response | 
2 | Oc1ccc2ccccc2c1 [NpOH, 2-naphthol] |  | (1.10 ± 0.03) × 10^5 M^−1
